Laboratory results published in patent US10815230B2, “Casein kinase 1 delta inhibitor” (ELECTROPHORETICS LIMITED, priority 2015, dated 2020).

Legend:
[1] = target: JAK1 (JH2domain-pseudokinase) (Homo sapiens, UniProt P23458); experiment: KINOMEscan binding assay; conditions: read-out: % Ctrl @ 10000 nM
[2] = target: ABL1 (T315I) phosphorylated (Homo sapiens, UniProt P00519, T315I); experiment: KINOMEscan binding assay; conditions: read-out: % Ctrl @ 10000 nM
CLK2 = CLK2 (Homo sapiens, UniProt P49760); experiment: KINOMEscan binding assay; conditions: read-out: % Ctrl @ 10000 nM
AXL = AXL (Homo sapiens, UniProt P30530); experiment: KINOMEscan binding assay; conditions: read-out: % Ctrl @ 10000 nM
ABL1 phosphorylated = ABL1 phosphorylated (Homo sapiens, UniProt P00519); experiment: KINOMEscan binding assay; conditions: read-out: % Ctrl @ 10000 nM
IRAK4 = IRAK4 (Homo sapiens, UniProt Q9NWZ3); experiment: KINOMEscan binding assay; conditions: read-out: % Ctrl @ 10000 nM
FLT3 (N841I) = FLT3 (N841I) (Homo sapiens, UniProt P36888, N841I); experiment: KINOMEscan binding assay; conditions: read-out: % Ctrl @ 10000 nM
ERBB2 = ERBB2 (Homo sapiens, UniProt P04626); experiment: KINOMEscan binding assay; conditions: read-out: % Ctrl @ 10000 nM
JNK2 = JNK2 (Homo sapiens, UniProt P45984); experiment: KINOMEscan binding assay; conditions: read-out: % Ctrl @ 10000 nM
CHEK1 = CHEK1 (Homo sapiens, UniProt O14757); experiment: KINOMEscan binding assay; conditions: read-out: % Ctrl @ 10000 nM
OSR1 = OSR1 (Homo sapiens, UniProt O95747); experiment: KINOMEscan binding assay; conditions: read-out: % Ctrl @ 10000 nM
TYK2 JH1domain-catalytic = TYK2 JH1domain-catalytic (Homo sapiens, UniProt P29597); experiment: KINOMEscan binding assay; conditions: read-out: % Ctrl @ 10000 nM
MYLK2 = MYLK2 (Homo sapiens, UniProt Q9H1R3); experiment: KINOMEscan binding assay; conditions: read-out: % Ctrl @ 10000 nM
non-mutant kinases = experiment: KINOMEscan kinase screening panel, binding capacity and Selectivity Score; conditions: 10 μM, 395 non-mutant kinases
Experimental: The assay was carried out according to the established KINOMEscan® technology (DiscoveRx® LeadHunter®, Discovery services, www.discoverx.com). […] Screening “hits” are identified by measuring the amount of kinase captured in test versus control samples by using a quantitative, qPCR method that detects an associated DNA label. For most assays, kinase-tagged T7 phage strains ware grown in parallel in 24-well blocks in an E. coli host derived from the BL21 strain. E. coli were grown to log-phase and infected with T7 phage from a frozen stock (multiplicity of infection=0.4) and incubated with shading at 32° C. until lysis (90-150 minutes). The lysates were centrifuged (6,000×g) and filtered (0.2 μm) to remove cell debris. The remaining kinases were produced in HEK293 cells and subsequently tagged with DMA for qPCR detection. Streptavidin-coated magnetic beads were treated with biotinylated small molecule ligands for 30 minutes at room temperature to generate affinity resins for kinase assays. The liganded beads were blocked with excess biotin and washed with blocking buffer (SeaBlock (Pierce), 1% BSA, 0.05 % Tween 20, 1 mM DTT) to remove unbound ligand and to reduce non-specific phage binding. […] All reactions were performed in polypropylene 384-well plates in a final volume of 0.04 ml. The assay plates were incubated at room temperature with shaking for 1 hour and the affinity beads were washed with wash buffer (1×PBS, 0.05% Tween 20). The beads were then re-suspended in elution buffer (1×PBS, 0.05 % Tween 20, 0.5 μM non-biotinylated affinity ligand) and incubated at room temperature with shaking for 30 minutes. The kinase concentration in the eluates was measured by qPCR.
Results were reported as “% Ctrl”, where lower numbers indicate stronger hits. The calculation of the “% Ctrl” was as follow:
In addition to the binding capacity, the Selectivity Score (or S-score) was calculated (Karaman, M. W. et al. A quantitative analysis of kinase inhibitor selectivity. Nat. Biotechnol. 26, 127-132 (2008). The S-score is a quantitative measure of compound selectivity. It is calculated by dividing the number of kinases that a compound binds to by the total number of distinct kinases tested, excluding mutant variants. S-score−Number of hits/Number of assays
S(35)=(number of non-mutant kinases with % Ctrl<35)/(number of non-mutant kinases tested)
S(10)=(number of non-mutant kinases with % Ctrl<10)/(number of non-mutant kinases tested)
S(1)=(number of non-mutant kinases with % Ctrl<1)/(number of non-mutant kinases tested)
and provides a quantitative method of describing compound selectivity to facilitate comparison of different compounds. The screening concentration was 10 μM.

NEK11 = NEK11 (Homo sapiens, UniProt Q8NG66); experiment: KINOMEscan binding assay; conditions: read-out: % Ctrl @ 10000 nM
VRK2 = target: T1, VRK2 (Homo sapiens, UniProt Q86Y07); experiment: KINOMEscan binding assay; conditions: read-out: % Ctrl @ 10000 nM
T1 construct: purchased DiscoveRx (KINOMEscan, LeadHunter Discovery services)

p38-beta = p38-beta (Homo sapiens, UniProt Q15759); experiment: KINOMEscan binding assay; conditions: read-out: % Ctrl @ 10000 nM
PIM1 = PIM1 (Homo sapiens, UniProt P11309); experiment: KINOMEscan binding assay; conditions: read-out: % Ctrl @ 10000 nM
FLT3 (ITD) = experiment: KINOMEscan binding assay
CDC2L1 = CDC2L1 (Homo sapiens, UniProt P21127); experiment: KINOMEscan binding assay; conditions: read-out: % Ctrl @ 10000 nM
HIPK4 = HIPK4 (Homo sapiens, UniProt Q8NE63); experiment: KINOMEscan binding assay; conditions: read-out: % Ctrl @ 10000 nM
NEK7 = NEK7 (Homo sapiens, UniProt Q8TDX7); experiment: KINOMEscan binding assay; conditions: read-out: % Ctrl @ 10000 nM
MET (M1250T) = MET (M1250T) (Homo sapiens, UniProt P08581, M1250T); experiment: KINOMEscan binding assay; conditions: read-out: % Ctrl @ 10000 nM
TGFBR1 = TGFBR1 (Homo sapiens, UniProt P36897); experiment: KINOMEscan binding assay; conditions: read-out: % Ctrl @ 10000 nM
CDK7 = CDK7 (Homo sapiens, UniProt P50613); experiment: KINOMEscan binding assay; conditions: read-out: % Ctrl @ 10000 nM
ULK3 = target: T2, ULK3 (Homo sapiens, UniProt Q6PHR2); experiment: KINOMEscan binding assay; conditions: read-out: % Ctrl @ 10000 nM
T2 construct: purchased DiscoveRx (KINOMEscan, LeadHunter Discovery services)

p38-alpha = p38-alpha (Homo sapiens, UniProt Q16539); experiment: KINOMEscan binding assay; conditions: read-out: % Ctrl @ 10000 nM
Chain of p38-alpha (Q16539 whole entry): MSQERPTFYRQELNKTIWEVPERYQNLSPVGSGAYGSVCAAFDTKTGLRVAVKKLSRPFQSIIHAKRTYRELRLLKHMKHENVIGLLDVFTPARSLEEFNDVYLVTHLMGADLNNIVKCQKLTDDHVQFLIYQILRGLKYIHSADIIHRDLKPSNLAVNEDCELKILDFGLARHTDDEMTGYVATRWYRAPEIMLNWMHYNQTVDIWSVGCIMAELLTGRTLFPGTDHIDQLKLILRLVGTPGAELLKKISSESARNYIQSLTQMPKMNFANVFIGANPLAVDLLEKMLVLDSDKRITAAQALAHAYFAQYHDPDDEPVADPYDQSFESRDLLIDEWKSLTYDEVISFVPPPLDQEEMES

Chain of AXL (P30530 26-894): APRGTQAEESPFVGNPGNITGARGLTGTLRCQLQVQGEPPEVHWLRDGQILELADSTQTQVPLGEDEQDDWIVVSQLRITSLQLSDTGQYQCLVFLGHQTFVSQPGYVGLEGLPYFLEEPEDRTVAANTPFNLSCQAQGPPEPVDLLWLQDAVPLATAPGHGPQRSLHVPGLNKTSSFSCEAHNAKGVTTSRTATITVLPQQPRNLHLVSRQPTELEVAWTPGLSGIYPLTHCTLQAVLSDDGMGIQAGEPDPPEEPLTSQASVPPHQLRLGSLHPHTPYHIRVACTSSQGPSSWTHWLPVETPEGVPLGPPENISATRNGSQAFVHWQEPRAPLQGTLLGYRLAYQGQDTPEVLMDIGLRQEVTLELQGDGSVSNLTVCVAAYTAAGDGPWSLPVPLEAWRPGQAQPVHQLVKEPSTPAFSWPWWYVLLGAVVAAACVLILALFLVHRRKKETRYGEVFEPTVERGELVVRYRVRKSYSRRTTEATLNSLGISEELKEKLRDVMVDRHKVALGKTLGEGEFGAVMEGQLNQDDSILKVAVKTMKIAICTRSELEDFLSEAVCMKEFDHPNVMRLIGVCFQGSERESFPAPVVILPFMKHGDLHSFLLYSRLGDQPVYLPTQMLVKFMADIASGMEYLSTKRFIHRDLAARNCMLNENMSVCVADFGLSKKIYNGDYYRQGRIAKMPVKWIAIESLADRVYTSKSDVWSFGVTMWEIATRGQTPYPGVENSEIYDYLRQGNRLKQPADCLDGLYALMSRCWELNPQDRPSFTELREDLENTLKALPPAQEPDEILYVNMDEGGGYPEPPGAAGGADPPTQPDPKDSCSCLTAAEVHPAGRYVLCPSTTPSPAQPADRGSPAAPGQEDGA
Chain of NEK7 (Q8TDX7 whole entry): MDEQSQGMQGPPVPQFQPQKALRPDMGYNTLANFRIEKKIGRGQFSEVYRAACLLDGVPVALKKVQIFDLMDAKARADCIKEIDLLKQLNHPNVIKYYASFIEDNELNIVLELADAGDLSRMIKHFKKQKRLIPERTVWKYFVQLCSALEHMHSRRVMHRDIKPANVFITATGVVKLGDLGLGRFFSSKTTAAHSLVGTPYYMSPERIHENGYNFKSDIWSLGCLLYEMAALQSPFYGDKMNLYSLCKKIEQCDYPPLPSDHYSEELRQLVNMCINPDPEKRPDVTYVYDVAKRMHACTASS
Chain of MYLK2 (Q9H1R3 whole entry): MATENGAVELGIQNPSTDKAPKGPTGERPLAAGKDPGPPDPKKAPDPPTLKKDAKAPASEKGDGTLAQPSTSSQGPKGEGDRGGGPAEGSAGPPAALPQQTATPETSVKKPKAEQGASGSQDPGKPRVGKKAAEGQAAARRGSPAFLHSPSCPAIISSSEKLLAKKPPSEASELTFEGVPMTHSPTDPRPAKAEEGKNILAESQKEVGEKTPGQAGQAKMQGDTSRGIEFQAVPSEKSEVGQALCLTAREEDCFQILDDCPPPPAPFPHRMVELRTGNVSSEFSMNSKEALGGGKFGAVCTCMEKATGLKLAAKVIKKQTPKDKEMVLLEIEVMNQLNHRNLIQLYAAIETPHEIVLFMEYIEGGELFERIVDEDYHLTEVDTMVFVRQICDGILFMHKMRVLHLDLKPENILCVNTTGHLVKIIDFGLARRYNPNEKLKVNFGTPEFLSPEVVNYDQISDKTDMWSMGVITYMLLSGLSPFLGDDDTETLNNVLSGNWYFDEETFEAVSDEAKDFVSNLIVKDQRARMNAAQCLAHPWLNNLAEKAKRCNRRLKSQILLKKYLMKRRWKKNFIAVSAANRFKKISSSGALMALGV
Chain of NEK11 (Q8NG66 whole entry): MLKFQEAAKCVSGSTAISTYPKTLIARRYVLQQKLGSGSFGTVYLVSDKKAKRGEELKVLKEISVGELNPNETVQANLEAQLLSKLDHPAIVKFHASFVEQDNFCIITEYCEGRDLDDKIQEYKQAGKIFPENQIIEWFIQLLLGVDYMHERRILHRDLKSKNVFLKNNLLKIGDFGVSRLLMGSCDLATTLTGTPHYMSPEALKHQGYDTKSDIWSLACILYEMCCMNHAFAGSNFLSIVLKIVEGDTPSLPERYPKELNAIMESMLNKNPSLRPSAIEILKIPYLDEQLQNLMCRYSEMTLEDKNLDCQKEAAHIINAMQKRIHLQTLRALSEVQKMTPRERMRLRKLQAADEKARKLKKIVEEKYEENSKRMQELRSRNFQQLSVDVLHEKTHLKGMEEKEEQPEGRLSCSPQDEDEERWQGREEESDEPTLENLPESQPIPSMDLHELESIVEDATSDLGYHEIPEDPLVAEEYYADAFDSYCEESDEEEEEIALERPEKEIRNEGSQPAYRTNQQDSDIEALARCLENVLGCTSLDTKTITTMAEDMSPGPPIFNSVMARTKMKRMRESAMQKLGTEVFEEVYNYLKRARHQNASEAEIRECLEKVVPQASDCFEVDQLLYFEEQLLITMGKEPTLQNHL
T1 sequence (Q86Y07 whole entry): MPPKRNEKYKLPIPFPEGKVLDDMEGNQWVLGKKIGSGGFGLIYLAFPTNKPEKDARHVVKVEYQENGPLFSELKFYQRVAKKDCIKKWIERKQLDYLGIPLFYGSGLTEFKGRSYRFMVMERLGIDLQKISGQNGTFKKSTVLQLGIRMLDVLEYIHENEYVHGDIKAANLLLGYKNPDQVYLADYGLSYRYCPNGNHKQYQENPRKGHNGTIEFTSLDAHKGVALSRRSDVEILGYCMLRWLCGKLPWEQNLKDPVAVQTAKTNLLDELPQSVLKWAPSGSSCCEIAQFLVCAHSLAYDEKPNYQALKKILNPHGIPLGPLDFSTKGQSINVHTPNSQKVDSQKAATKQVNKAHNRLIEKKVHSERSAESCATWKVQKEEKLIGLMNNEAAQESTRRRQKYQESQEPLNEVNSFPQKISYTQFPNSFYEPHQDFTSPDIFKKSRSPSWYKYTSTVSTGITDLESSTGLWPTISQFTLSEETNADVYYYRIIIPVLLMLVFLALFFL
Chain of CLK2 (P49760 whole entry): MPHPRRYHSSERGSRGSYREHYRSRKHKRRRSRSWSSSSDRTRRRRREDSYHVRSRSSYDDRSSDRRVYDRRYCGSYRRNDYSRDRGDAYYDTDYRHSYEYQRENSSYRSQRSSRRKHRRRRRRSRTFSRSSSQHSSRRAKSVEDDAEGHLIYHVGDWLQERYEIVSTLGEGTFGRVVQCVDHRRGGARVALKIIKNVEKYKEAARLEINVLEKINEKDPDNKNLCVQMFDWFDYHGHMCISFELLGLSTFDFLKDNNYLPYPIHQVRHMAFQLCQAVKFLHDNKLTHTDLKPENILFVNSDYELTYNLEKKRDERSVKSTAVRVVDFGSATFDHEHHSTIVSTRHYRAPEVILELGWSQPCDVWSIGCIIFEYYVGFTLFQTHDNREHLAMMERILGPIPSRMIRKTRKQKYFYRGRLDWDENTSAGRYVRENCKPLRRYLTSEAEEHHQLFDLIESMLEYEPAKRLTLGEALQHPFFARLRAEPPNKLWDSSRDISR
Chain of JNK2 (P45984 whole entry): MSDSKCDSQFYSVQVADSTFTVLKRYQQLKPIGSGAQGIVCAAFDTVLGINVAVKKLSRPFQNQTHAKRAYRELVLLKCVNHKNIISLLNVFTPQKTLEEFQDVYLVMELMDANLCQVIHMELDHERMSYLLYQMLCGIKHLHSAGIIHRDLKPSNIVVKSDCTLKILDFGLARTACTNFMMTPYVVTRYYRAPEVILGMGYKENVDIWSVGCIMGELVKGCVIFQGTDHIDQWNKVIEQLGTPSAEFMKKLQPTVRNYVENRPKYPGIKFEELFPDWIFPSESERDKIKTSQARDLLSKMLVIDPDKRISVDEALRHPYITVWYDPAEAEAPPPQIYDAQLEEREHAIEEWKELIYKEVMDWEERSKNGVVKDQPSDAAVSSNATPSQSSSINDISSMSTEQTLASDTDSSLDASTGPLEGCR
Chain of PIM1 (P11309 whole entry): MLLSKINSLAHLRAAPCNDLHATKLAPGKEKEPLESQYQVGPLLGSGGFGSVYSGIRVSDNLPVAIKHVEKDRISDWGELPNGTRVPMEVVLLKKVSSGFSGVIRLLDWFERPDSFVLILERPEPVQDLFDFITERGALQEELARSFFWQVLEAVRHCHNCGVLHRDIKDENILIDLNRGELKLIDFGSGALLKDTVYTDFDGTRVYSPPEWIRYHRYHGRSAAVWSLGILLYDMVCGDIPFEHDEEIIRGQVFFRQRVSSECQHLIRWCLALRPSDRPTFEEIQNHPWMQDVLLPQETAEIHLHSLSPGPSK
Chain of TGFBR1 (P36897 34-503): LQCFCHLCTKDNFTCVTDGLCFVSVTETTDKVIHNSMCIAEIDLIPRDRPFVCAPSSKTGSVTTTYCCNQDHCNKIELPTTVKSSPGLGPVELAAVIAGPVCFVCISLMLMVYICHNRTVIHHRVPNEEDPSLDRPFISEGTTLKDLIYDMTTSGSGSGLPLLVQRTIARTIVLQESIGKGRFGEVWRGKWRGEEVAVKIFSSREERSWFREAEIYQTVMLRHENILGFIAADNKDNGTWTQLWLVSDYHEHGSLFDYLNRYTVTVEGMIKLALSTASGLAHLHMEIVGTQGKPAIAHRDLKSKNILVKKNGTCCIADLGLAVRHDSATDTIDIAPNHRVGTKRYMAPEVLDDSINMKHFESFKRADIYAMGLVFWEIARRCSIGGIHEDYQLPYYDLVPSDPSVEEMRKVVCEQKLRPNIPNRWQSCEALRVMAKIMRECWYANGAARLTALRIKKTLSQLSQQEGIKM

Structure (SMILES)	remaining binding at 10 µM [1]	remaining binding at 10 µM [2]	remaining binding at 10 µM (CLK2)	remaining binding at 10 µM (AXL)	remaining binding at 10 µM (ABL1 phosphorylated)	remaining binding at 10 µM (IRAK4)	remaining binding at 10 µM (FLT3 (N841I))	remaining binding at 10 µM (ERBB2)	remaining binding at 10 µM (JNK2)	remaining binding at 10 µM (CHEK1)	remaining binding at 10 µM (OSR1)	remaining binding at 10 µM (TYK2 JH1domain-catalytic)	remaining binding at 10 µM (MYLK2)	remaining binding at 10 µM (NEK11)	remaining binding at 10 µM (VRK2)	remaining binding at 10 µM (p38-beta)	remaining binding at 10 µM (PIM1)	remaining binding at 10 µM (CDC2L1)	remaining binding at 10 µM (HIPK4)	remaining binding at 10 µM (NEK7)	further results
Nc1ncc(-c2nc3ccccc3o2)c(-c2ccncc2)n1 [Comparative Compound 324, 5-(1,3-benzoxazol-2-yl)-4-(pyridine-4-yl)pyrimidin-2-amine]	17%	85%	78%	100%	98%	100%	83%	99%	18%	100%	100%	86%	100%	86%	86%	100%	98%	91%	100%	100%	Number of Hits S (1) (non-mutant kinases; % Ctrl<1): 0; S-score S (1) (non-mutant kinases; % Ctrl<1): 0; Number of Hits S (10) (non-mutant kinases; % Ctrl<10): 4; S-score S (10) (non-mutant kinases; % Ctrl<10): 0.01; Number of Hits S (35) (non-mutant kinases; % Ctrl<35): 8; S-score S (35) (non-mutant kinases; % Ctrl<35): 0.02; % Ctrl @ 10000 nM (FLT3 (ITD)): 85 % Ctrl; remaining binding at 10 µM (MET (M1250T)): 97%; remaining binding at 10 µM (TGFBR1): 94%; remaining binding at 10 µM (CDK7): 70%; remaining binding at 10 µM (ULK3): 100%; remaining binding at 10 µM (p38-alpha): 33%
CNc1c(C(N)=O)c2ccccn2c1C(=O)c1ccc(F)cc1 [Compound A, 2-methyl-amino-3-[(4-fluorophenyl)carbonyl]indolizine-1-carboxamide]	71%	100%	57%	95%	51%	98%	87%	49%	45%	85%	99%	71%	100%	88%	35%	100%	92%	85%	83%	100%	remaining binding at 10 µM (MET (M1250T)): 83%; remaining binding at 10 µM (TGFBR1): 92%; remaining binding at 10 µM (CDK7): 56%; remaining binding at 10 µM (ULK3): 100%; remaining binding at 10 µM (p38-alpha): 6%
